# Laboratory results reported in US20260365670A1, “EGFR INHIBITORS AND USES THEREOF” (DIZAL (JIANGSU) PHARMACEUTICAL CO., LTD., priority 2022, published 2026).
# Read-outs that look alike come from different tables or passages of the source.
# What was measured:
# [1] = target: T1, EGFR[T790M/C797S/d746-750] (Homo sapiens, UniProt P00533, C797S/DEL746-750/T790M); test: Inhibition of EGFR[T790M/C797S/d746-750] biochemical enzymatic activity (HTRF); conditions: EGFR T790M-C797S-Del19, 1 mM ATP, 1 h, room temperature, read-out: IC50 (nM) @T790M - C797S - Del19
# T1 construct: purchased Carna Bio
# T1 sequence (P00533 with tags, fused parts or gaps DEL746-750/T790M/C797S limits assumed): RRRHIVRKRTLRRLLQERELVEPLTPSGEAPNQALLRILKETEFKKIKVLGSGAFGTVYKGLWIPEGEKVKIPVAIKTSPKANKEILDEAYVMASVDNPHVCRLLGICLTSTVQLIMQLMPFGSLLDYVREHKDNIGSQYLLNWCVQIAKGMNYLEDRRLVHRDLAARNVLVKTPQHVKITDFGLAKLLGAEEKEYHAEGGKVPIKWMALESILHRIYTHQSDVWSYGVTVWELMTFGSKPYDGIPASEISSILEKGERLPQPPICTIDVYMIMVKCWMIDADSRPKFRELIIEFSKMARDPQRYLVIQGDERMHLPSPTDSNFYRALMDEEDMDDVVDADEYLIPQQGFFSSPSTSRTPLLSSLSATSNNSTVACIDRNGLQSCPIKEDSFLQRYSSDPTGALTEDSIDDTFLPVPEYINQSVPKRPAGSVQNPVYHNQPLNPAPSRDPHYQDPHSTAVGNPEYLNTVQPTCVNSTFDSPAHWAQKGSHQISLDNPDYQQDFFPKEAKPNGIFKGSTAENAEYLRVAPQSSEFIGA
# Method in brief: (§1)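 HTRF kinase assay: each EGFR enzyme phosphorylated 1 μM biotinylated TK substrate with 1 mM ATP in buffer containing 5 mM MgCl2, 1 mM MnCl2, 0.01% CHAPS, 1 mM DTT, 0.5% DMSO. After 1 h at room temperature, EDTA detection mix stopped the reaction. IC50 came from a four-parameter logistic fit of the 665/615 nm ratio.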
# EGFR (d746-750 C797S) = target: T2, EGFR (d746-750 C797S) (Homo sapiens, UniProt P00533, C797S/DEL746-750); test: Inhibition of EGFR (d746-750 C797S) biochemical enzymatic activity (HTRF); conditions: EGFR Del19-C797S, 1 mM ATP, 1 h, room temperature, read-out: IC50 (nM) @Del19-C797S
# T2 construct: purchased signalchem
# T2 sequence (P00533 with tags, fused parts or gaps DEL746-750/C797S limits assumed): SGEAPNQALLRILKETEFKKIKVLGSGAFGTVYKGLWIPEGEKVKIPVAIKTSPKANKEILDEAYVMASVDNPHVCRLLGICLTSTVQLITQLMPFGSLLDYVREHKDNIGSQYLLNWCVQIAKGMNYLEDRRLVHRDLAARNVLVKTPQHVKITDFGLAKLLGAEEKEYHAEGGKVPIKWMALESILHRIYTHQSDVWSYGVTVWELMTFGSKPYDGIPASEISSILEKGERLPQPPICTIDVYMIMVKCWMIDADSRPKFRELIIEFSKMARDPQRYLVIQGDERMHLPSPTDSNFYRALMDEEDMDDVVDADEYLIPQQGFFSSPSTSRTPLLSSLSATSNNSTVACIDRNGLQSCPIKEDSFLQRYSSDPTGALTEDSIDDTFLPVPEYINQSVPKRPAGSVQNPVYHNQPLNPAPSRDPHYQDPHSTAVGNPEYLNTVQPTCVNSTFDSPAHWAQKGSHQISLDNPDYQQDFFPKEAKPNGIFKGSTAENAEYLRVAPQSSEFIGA
# Method in brief: as §1
# EGFR L858R = target: T3, EGFR L858R (Homo sapiens, UniProt P00533, L858R); test: Inhibition of EGFR L858R biochemical enzymatic activity (HTRF); conditions: 1 mM ATP, 1 h, room temperature, read-out: IC50 (nM) @L858R
# T3 construct: purchased Carna Bio
# T3 sequence (P00533 25-1210 L858R): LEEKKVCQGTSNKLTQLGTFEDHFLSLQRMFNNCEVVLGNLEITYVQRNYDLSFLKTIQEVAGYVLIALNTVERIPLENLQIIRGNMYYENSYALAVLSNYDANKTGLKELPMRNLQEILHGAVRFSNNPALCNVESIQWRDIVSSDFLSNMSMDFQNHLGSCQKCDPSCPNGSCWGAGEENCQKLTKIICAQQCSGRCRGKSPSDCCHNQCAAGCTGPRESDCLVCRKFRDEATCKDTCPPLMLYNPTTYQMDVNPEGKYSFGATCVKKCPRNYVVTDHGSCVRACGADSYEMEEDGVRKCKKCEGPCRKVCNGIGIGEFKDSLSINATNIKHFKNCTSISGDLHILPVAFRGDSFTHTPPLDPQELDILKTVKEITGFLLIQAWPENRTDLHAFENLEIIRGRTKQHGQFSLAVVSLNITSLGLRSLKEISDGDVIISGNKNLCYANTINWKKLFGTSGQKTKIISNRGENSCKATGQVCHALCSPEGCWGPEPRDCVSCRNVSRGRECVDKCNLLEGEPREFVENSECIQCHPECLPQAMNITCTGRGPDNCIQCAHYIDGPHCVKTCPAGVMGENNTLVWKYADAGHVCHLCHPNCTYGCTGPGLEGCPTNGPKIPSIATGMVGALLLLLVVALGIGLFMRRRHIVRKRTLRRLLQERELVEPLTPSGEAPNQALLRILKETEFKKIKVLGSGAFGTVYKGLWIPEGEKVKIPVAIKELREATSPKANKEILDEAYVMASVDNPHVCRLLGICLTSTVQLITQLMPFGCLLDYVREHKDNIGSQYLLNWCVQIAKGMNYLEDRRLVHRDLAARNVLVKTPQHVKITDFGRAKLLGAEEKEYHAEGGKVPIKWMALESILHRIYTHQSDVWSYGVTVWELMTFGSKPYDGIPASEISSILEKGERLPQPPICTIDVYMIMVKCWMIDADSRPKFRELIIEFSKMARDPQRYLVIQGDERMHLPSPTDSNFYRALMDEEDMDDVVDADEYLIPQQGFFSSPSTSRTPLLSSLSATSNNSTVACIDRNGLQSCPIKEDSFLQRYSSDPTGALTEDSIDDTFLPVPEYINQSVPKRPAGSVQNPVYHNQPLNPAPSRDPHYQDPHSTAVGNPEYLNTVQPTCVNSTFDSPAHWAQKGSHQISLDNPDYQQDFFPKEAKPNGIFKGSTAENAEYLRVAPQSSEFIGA
# Method in brief: as §1
# A-431 = test: Cell proliferation GI50, A-431 cells (Table 6); type: cell-based
# EGFR L858R/T790M = target: T4, EGFR L858R/T790M (Homo sapiens, UniProt P00533, L858R/T790M); test: Inhibition of EGFR L858R/T790M biochemical enzymatic activity (HTRF); conditions: EGFR L858R-T790M, 1 mM ATP, 1 h, room temperature, read-out: IC50 (nM) @L858R-T790M
# T4 construct: purchased Carna Bio
# Method in brief: as §1
# EGFR Exon19Del = target: T5, EGFR Exon19Del (Homo sapiens, UniProt P00533, DEL746-750); test: Inhibition of EGFR Exon19Del biochemical enzymatic activity (HTRF); conditions: EGFR Del19, 1 mM ATP, 1 h, room temperature, read-out: IC50 @Del19
# T5 construct: purchased Carna Bio
# T5 sequence (P00533 with tags, fused parts or gaps DEL746-750 limits assumed): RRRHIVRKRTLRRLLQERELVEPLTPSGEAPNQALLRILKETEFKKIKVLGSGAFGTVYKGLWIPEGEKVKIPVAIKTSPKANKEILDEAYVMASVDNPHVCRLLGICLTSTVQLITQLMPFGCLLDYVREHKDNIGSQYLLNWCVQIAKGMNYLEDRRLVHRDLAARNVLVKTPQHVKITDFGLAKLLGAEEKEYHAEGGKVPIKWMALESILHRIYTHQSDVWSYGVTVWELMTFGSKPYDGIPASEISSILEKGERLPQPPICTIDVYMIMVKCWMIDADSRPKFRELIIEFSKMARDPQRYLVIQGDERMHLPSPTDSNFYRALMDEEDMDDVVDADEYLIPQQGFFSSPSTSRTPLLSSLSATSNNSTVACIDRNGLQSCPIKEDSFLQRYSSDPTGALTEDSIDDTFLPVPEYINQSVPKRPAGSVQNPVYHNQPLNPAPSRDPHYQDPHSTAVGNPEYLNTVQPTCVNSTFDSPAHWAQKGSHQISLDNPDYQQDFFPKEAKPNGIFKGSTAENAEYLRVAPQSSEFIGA
# Method in brief: as §1
# PC-9 = test: Cell proliferation assay, PC-9 cells (CellTiter-Glo, 72 hours); type: cell-based; conditions: PC9 cells, CellTiter-Glo, read-out: PC9 GI50
# Method in brief: (§2)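 Cells are exposed to graded compound concentrations after overnight plating, using 500 PC-9 or 5000 Ba/F3 per well. Baseline-subtracted viability is compared with vehicle to give percent proliferation, then GI50.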
# EGFR wild type = target: T6, EGFR wild type (Homo sapiens, UniProt P00533); test: Inhibition of EGFR wild type biochemical enzymatic activity (HTRF); conditions: EGFR WT, 1 mM ATP, 1 h, room temperature, read-out: IC50 (nM) @WT
# T6 construct: purchased Carna Bio
# Method in brief: as §1
# EGFR (C797S L858R) = target: T7, EGFR (C797S L858R) (Homo sapiens, UniProt P00533, C797S/L858R); test: Inhibition of EGFR (C797S L858R) biochemical enzymatic activity (HTRF); conditions: EGFR L858-C797S, 1 mM ATP, 1 h, room temperature, read-out: IC50 (nM) @L858-C797S
# T7 construct: purchased signalchem
# T7 sequence (P00533 25-1210 C797S/L858R): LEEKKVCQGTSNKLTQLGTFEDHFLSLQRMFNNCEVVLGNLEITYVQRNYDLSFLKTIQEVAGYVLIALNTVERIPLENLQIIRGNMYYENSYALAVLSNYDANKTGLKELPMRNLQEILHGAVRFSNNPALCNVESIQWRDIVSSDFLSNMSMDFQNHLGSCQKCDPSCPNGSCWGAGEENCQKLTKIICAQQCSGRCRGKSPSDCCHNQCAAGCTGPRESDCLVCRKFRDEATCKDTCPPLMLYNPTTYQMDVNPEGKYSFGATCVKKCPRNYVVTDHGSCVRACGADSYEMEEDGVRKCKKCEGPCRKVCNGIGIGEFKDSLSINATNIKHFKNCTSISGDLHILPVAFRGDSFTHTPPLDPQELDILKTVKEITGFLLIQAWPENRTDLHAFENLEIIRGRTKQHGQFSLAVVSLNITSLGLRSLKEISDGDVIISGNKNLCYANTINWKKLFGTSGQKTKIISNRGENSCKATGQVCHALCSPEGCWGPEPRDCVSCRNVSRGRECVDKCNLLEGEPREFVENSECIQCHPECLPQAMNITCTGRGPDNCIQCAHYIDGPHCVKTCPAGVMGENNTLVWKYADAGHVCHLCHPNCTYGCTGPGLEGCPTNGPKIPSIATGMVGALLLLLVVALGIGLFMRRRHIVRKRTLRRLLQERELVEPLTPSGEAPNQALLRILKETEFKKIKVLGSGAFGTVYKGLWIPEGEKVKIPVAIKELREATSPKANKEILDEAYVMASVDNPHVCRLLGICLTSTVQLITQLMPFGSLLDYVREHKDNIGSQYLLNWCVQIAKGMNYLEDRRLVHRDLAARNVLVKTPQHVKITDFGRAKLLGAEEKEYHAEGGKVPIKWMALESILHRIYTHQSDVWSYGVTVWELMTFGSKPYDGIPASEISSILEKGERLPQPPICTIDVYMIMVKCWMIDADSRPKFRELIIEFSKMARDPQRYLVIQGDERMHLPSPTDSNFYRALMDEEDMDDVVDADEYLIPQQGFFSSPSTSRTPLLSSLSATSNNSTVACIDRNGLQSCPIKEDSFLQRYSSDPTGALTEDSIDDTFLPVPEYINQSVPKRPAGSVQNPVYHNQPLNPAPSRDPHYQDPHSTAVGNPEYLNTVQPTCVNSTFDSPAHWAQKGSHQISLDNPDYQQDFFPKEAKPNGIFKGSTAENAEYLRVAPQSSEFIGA
# Method in brief: as §1
# [2] = tested on: Ba/F3 cells expressing EGFR mutations; test: Cell proliferation assay, Ba/F3 cells expressing EGFR mutations (CellTiter-Glo, 72 hours); type: cell-based; conditions: CellTiter-Glo
# Method in brief: as §2
# EGFR[T790M/C797S/L858R] = target: T8, EGFR[T790M/C797S/L858R] (Homo sapiens, UniProt P00533, C797S/L858R/T790M); test: Inhibition of EGFR[T790M/C797S/L858R] biochemical enzymatic activity (HTRF); conditions: EGFR T790M-C797S-L858R, 1 mM ATP, 1 h, room temperature, read-out: IC50 (nM) @T790M- C797S - L858R
# T8 construct: purchased Carna Bio
# Method in brief: as §1
# EGFR Exon19Del/T790M = target: T9, EGFR Exon19Del/T790M (Homo sapiens, UniProt P00533, DEL746-750/T790M); test: Inhibition of EGFR Exon19Del/T790M biochemical enzymatic activity (HTRF); conditions: EGFR Del19-T790M, 1 mM ATP, 1 h, room temperature, read-out: IC50 (nM) @Del19-T790M
# T9 construct: purchased Carna Bio
# T9 sequence (P00533 with tags, fused parts or gaps DEL746-750/T790M limits assumed): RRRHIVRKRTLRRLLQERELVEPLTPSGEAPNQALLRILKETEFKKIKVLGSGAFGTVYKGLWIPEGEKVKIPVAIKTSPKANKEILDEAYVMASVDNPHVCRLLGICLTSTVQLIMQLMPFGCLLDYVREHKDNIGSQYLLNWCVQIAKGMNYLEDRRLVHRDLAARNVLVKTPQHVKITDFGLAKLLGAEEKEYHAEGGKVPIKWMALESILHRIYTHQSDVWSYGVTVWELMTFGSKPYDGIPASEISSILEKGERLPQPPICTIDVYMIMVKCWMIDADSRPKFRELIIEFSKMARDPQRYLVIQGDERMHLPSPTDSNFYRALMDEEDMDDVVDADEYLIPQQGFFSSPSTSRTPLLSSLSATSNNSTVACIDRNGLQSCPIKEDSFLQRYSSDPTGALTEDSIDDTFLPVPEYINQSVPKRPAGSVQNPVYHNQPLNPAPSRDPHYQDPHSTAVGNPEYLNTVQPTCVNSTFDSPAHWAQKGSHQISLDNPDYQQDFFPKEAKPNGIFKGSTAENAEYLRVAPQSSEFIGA
# Method in brief: as §1
# [3] = BaF3 cells, EGFR DEL19-C797S, read-out: DEL19-C797S/BaF3 GI50
# [4] = BaF3 cells, EGFR DEL19-T790-C797S, read-out: DEL19-T790-C797S/BaF3 GI50
# [5] = BaF3 cells, EGFR L858R, read-out: L858R/BaF3 GI50
# [6] = BaF3 cells, EGFR L858R-C797S, read-out: L858R-C797S/BaF3 GI50
# [7] = BaF3 cells, EGFR L858R-T790-C797S, read-out: L858R-T790-C797S/BaF3 GI50
# [8] = BaF3 cells, EGFR L858R-T790M, read-out: L858R-T790M/BaF3 GI50
# [9] = EGFR DEL19-T790M, read-out: DEL19-T790M GI50
# [10] = Homo sapiens, A-431, A-431 cells
# [11] = Mus musculus, BaF3, 72 h, BaF3 cells, EGFR DEL19-C797S, read-out: DEL19-C797S/BaF3 GI50
# [12] = Mus musculus, BaF3, 72 h, BaF3 cells, EGFR DEL19-T790-C797S, read-out: DEL19-T790-C797S/BaF3 GI50
# [13] = Mus musculus, BaF3, 72 h, BaF3 cells, EGFR L858R, read-out: L858R/BaF3 GI50
# [14] = Mus musculus, BaF3, 72 h, BaF3 cells, EGFR L858R-C797S, read-out: L858R-C797S/BaF3 GI50
# [15] = Mus musculus, BaF3, 72 h, BaF3 cells, EGFR L858R-T790-C797S, read-out: L858R-T790-C797S/BaF3 GI50
# [16] = Mus musculus, BaF3, 72 h, BaF3 cells, EGFR L858R-T790M, read-out: L858R-T790M/BaF3 GI50
# [17] = Mus musculus, BaF3, 72 h, EGFR DEL19-T790M, read-out: DEL19-T790M GI50
SMILES,IC50 [1],IC50 (EGFR (d746-750 C797S)),IC50 (EGFR L858R),GI50 (A-431; A-431 cells),IC50 (EGFR L858R/T790M),IC50 (EGFR Exon19Del),GI50 (PC-9),IC50 (EGFR wild type),IC50 (EGFR (C797S L858R)),"GI50 [2, 3]","GI50 [2, 4]","GI50 [2, 5]","GI50 [2, 6]","GI50 [2, 7]","GI50 [2, 8]","GI50 [2, 9]",IC50 (EGFR[T790M/C797S/L858R]),IC50 (EGFR Exon19Del/T790M),GI50 (A-431; [10]),"GI50 (PC-9; Homo sapiens, PC-9, 72 h)",further results
"Cn1ncc2c1OCCN1CC3CCC(C3)(C1)n1c(nc3ccc(N4CCN(C5COC5)CC4)cc31)NC(=O)c1cc-2c(=O)n(C)c1 (single isomer, unassigned) [Example A71B]",2.4 nM,1.3 nM,14 nM,830 nM,2.8 nM,1.8 nM,6.6 nM,319 nM,20 nM,0.66 nM,2 nM,2.9 nM,4.2 nM,2.2 nM,8 nM,1.9 nM,2.9 nM,2.5 nM,–,–,–
"CN1CCN(c2ccc3nc4n(c3c2)C23CCC(CC2)CN(CCOc2c(cnn2C)-c2cc(cn(C)c2=O)C(=O)N4)C3)CC1 [Example A75, 15,21-Dimethyl-5-(4-methylpiperazin-1-yl)-23-oxa-2,9,11,15,20,21,26-heptaazaheptacyclo[26.2.2.1^{1,26}.1^{13,17}.0^{2,10}.0^{3,8}.0^{18,22}]tetratriaconta-3,5,7,9,13,17(34),18(22),19-octaene-12,16-dione]",3.4 nM,2.8 nM,44 nM,–,6 nM,3.3 nM,–,672 nM,35 nM,–,–,–,–,–,–,–,8 nM,3.8 nM,5420 nM,44 nM,"GI50 [2, 11]: 2.5 nM; GI50 [2, 12]: 27 nM; GI50 [2, 13]: 21 nM; GI50 [2, 14]: 21 nM; GI50 [2, 15]: 35 nM; GI50 [2, 16]: 69 nM; GI50 [2, 17]: 20 nM"
CCN1CCN(c2ccc3nc4n(c3c2)C[C@H](C)CCCOc2c(cnn2C)-c2cc(cn(C)c2=O)C(=O)N4)CC1 [Example A49],4.9 nM,2.8 nM,45 nM,–,8.1 nM,5.5 nM,–,694 nM,16 nM,–,–,–,–,–,–,–,5.1 nM,6 nM,251 nM,12 nM,"GI50 [2, 11]: 2 nM; GI50 [2, 12]: 12 nM; GI50 [2, 13]: 5.7 nM; GI50 [2, 14]: 7 nM; GI50 [2, 15]: 5.3 nM; GI50 [2, 16]: 72 nM; GI50 [2, 17]: 18 nM"
"COCCN(C)c1ccc2nc3n(c2c1)C12CCC(CN(CCOc4c(cnn4C)-c4cc(cn(C)c4=O)C(=O)N3)C1)C2 (single isomer, unassigned) [Example A90B]",4.9 nM,3.5 nM,54 nM,3160 nM,10 nM,6.3 nM,46 nM,825 nM,31 nM,0.75 nM,3.9 nM,4.6 nM,8 nM,15 nM,14 nM,3.2 nM,9.3 nM,5.9 nM,–,–,–
"CN(C)C1CCN(c2ccc3nc4n(c3c2)C23CCC(CN(CCOc5c(cnn5C)-c5cc(cn(C)c5=O)C(=O)N4)C2)C3)CC1 (single isomer, unassigned) [Example A64B]",2 nM,0.95 nM,2 nM,973 nM,2 nM,1 nM,3.3 nM,3.6 nM,2 nM,0.71 nM,0.92 nM,0.91 nM,1.7 nM,0.79 nM,4.9 nM,1.3 nM,1.9 nM,1.8 nM,–,–,–

# Now from value to compound, other results behind:
IC50 [1],IC50 (EGFR (d746-750 C797S)),IC50 (EGFR L858R),GI50 (A-431; A-431 cells),IC50 (EGFR L858R/T790M),IC50 (EGFR Exon19Del),GI50 (PC-9),IC50 (EGFR wild type),IC50 (EGFR (C797S L858R)),"GI50 [2, 3]","GI50 [2, 4]","GI50 [2, 5]","GI50 [2, 6]","GI50 [2, 7]","GI50 [2, 8]","GI50 [2, 9]",IC50 (EGFR[T790M/C797S/L858R]),IC50 (EGFR Exon19Del/T790M),GI50 (A-431; [10]),"GI50 (PC-9; Homo sapiens, PC-9, 72 h)",SMILES,further results
4.5 nM,2.5 nM,8.9 nM,–,6.8 nM,3 nM,–,42 nM,6.7 nM,–,–,–,–,–,–,–,5.1 nM,5.4 nM,279 nM,2.5 nM,C[C@@H]1CCCOc2c(cnn2C)-c2cc(cn(C)c2=O)C(=O)Nc2nc3ccc(N4CC5(CCN(C)C5)C4)cc3n2C1 [Example A42],"GI50 [2, 11]: 0.47 nM; GI50 [2, 12]: 1.8 nM; GI50 [2, 13]: 0.75 nM; GI50 [2, 14]: 2.1 nM; GI50 [2, 15]: 1.6 nM; GI50 [2, 16]: 8.7 nM; GI50 [2, 17]: 2.2 nM"
26 nM,53 nM,197 nM,–,120 nM,81 nM,–,3550 nM,120 nM,–,–,–,–,–,–,–,121 nM,47 nM,3570 nM,68 nM,"Cn1ncc2c1OCCN(CC(F)(F)F)CCn1c(nc3ccccc31)NC(=O)c1cc-2c(=O)n(C)c1 [Example A1, 5,26-Dimethyl-10-(2,2,2-trifluoroethyl)-7-oxa-4,5,10,13,20,22,26-heptaazapentacyclo[22.3.1.0^{2,6}.0^{13,21}.0^{14,19}]octacosa-1(28),2(6),3,14,16,18,20,24-octaene-23,27-dione]","GI50 [2, 11]: 22 nM; GI50 [2, 12]: 170 nM; GI50 [2, 13]: 6.1 nM; GI50 [2, 14]: 21 nM; GI50 [2, 15]: 27 nM; GI50 [2, 16]: 60 nM; GI50 [2, 17]: 114 nM"
1.6 nM,0.91 nM,2.4 nM,434 nM,2.4 nM,1.2 nM,2.4 nM,11 nM,2.2 nM,0.51 nM,0.82 nM,0.87 nM,0.74 nM,0.9 nM,1 nM,0.75 nM,1.4 nM,2.7 nM,–,–,"CN1CCC2(C1)CN(c1ccc3nc4n(c3c1)C13CCC(CN(CCOc5c(cnn5C)-c5cc(cn(C)c5=O)C(=O)N4)C1)C3)C2 (single isomer, unassigned) [Example A78B]",–
2.2 nM,1.2 nM,22 nM,776 nM,2.8 nM,2.9 nM,4.9 nM,291 nM,14 nM,0.62 nM,1.3 nM,2.9 nM,3.6 nM,2 nM,10 nM,2 nM,3 nM,2 nM,–,–,"Cn1ncc2c1OCCN1CC3CCC(C3)(C1)n1c(nc3ccc(N4CC(N5CCOCC5)C4)cc31)NC(=O)c1cc-2c(=O)n(C)c1 (single isomer, unassigned) [Example A69B]",–
